Experimental data taken from US20240116845A1, “INDENE COMPOUNDS, PHARMACEUTICAL COMPOSITIONS THEREOF, AND THEIR THERAPEUTIC APPLICATIONS” (NucMito Pharmaceuticals Co., Ltd., priority 2021, published 2024).

What was measured:
Format in all cases: cell-based
[1] = test system: alpha-smooth muscle actin (α-SMA); test: Inhibition of TGF-β induced expression of alpha-smooth muscle actin in CFSC cells (western blot); conditions: compound at 10 μM, TGF-β (10 ng/mL), 24 hours
Outline: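 Rat CCl4-treated hepatic stellate (CFSC) cells in serum-free DMEM were given compound at 10 μM plus TGF-β 10 ng/mL for 24 h at 37 °C. α-SMA measured by western blot with β-actin, bands quantified densitometrically. Percent inhibition is the decrease in band intensity versus TGF-β alone.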

[2] = test system: A431 (epidermoid carcinoma); test: Antiproliferative activity, CCK-8 cell viability; conditions: Homo sapiens, A-431, 72 h, read-out: Inhibition of Cancerous Cells, A431; for inhibition at 3.3 µM: compound concentration of 3.3 μM; for inhibition at 10 µM: compound concentration of 10 μM; for inhibition at 30 µM: compound concentration of 30 μM
Outline: (§1)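 Cells in DMEM with 10% FBS were treated with compound at 3.3, 10 or 30 μM for 72 h at 37°C. Viability was read by CCK-8 absorbance at 450 nm and expressed relative to DMSO-treated cells. Growth inhibition was binned as ≥50%, 30–50% or <30%.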

[3] = test system: A549 (lung adenocarcinoma); test: Antiproliferative activity, CCK-8 cell viability; conditions: Homo sapiens, 72 h, read-out: Inhibition of Cancerous Cells, A549; for inhibition at 3.3 µM: compound concentration of 3.3 μM; for inhibition at 10 µM: compound concentration of 10 μM; for inhibition at 30 µM: compound concentration of 30 μM
[4] = test system: B16F10 (malignant melanoma); test: Antiproliferative activity, CCK-8 cell viability; conditions: Mus musculus, B16-F10, 72 h, read-out: Inhibition of Cancerous Cells, B16F10; for inhibition at 3.3 µM: compound concentration of 3.3 μM; for inhibition at 10 µM: compound concentration of 10 μM; for inhibition at 30 µM: compound concentration of 30 μM
Outline: as §1

[5] = test system: HeLa (cervical cancer); test: Antiproliferative activity, CCK-8 cell viability; conditions: Homo sapiens, 72 h, read-out: Inhibition of Cancerous Cells, HELA; for inhibition at 3.3 µM: compound concentration of 3.3 μM; for inhibition at 10 µM: compound concentration of 10 μM; for inhibition at 30 µM: compound concentration of 30 μM
[6] = test system: HepG2 (liver cancer); test: Antiproliferative activity, CCK-8 cell viability; conditions: Homo sapiens, 72 h, read-out: Inhibition of Cancerous Cells, HepG2; for inhibition at 3.3 µM: compound concentration of 3.3 μM; for inhibition at 10 µM: compound concentration of 10 μM; for inhibition at 30 µM: compound concentration of 30 μM
Outline: as §1

[7] = test system: MDA-MB-231 (breast cancer); test: Antiproliferative activity, CCK-8 cell viability; conditions: Homo sapiens, 72 h, read-out: Inhibition of Cancerous Cells, MDA-MB-231; for inhibition at 3.3 µM: compound concentration of 3.3 μM; for inhibition at 10 µM: compound concentration of 10 μM; for inhibition at 30 µM: compound concentration of 30 μM
Outline: as §1

[8] = test system: SW480 (colon cancer); test: Antiproliferative activity, CCK-8 cell viability; conditions: Homo sapiens, 72 h, read-out: Inhibition of Cancerous Cells, SW480; for inhibition at 3.3 µM: compound concentration of 3.3 μM; for inhibition at 10 µM: compound concentration of 10 μM; for inhibition at 30 µM: compound concentration of 30 μM
Outline: as §1

| Structure (SMILES) | inhibition at 10 µM [1] [%] | inhibition at 3.3 µM [2] [%] | inhibition at 10 µM [2] [%] | inhibition at 30 µM [2] [%] | inhibition at 3.3 µM [3] [%] | inhibition at 10 µM [3] [%] | inhibition at 30 µM [3] [%] | inhibition at 3.3 µM [4] [%] | inhibition at 10 µM [4] [%] | inhibition at 30 µM [4] [%] | inhibition at 3.3 µM [5] [%] | inhibition at 10 µM [5] [%] | inhibition at 30 µM [5] [%] | inhibition at 3.3 µM [6] [%] | inhibition at 10 µM [6] [%] | inhibition at 30 µM [6] [%] | inhibition at 3.3 µM [7] [%] | inhibition at 10 µM [7] [%] | inhibition at 30 µM [7] [%] | inhibition at 3.3 µM [8] [%] | also measured |
| --- | --- | --- | --- | --- | --- | --- | --- | --- | --- | --- | --- | --- | --- | --- | --- | --- | --- | --- | --- | --- | --- |
| CC1=C(CC(=O)O)c2cc(F)cc(F)c2/C1=C\c1cccc(Oc2ccccc2)c1 [Compound D20, 2-[(1Z)-5,7-Difluoro-1-(3-(phenoxy)benzylidene)-2-methyl-1H-inden-3-yl]-acetic acid] | ≥ 80 | < 30 | < 30 | ≥ 50 | 30 to 50 | ≥ 50 | ≥ 50 | 30 to 50 | ≥ 50 | ≥ 50 | < 30 | < 30 | ≥ 50 | ≥ 50 | ≥ 50 | ≥ 50 | 30 to 50 | ≥ 50 | ≥ 50 | ≥ 50 | inhibition at 10 µM [8]: ≥ 50%; inhibition at 30 µM [8]: ≥ 50% |
| CC1=C(CC(=O)O)c2cc(F)cc(F)c2/C1=C/c1ccc(Oc2ccc(F)cc2)cc1 [Compound E4, 2-[(1E)-5,7-Difluoro-2-methyl-1-({4-[4-fluorophenoxy]phenyl}methylidene)-1H-inden-3-yl]acetic acid] | ≥ 80 | < 30 | ≥ 50 | ≥ 50 | < 30 | 30 to 50 | ≥ 50 | ≥ 50 | ≥ 50 | ≥ 50 | 30 to 50 | ≥ 50 | ≥ 50 | ≥ 50 | ≥ 50 | ≥ 50 | ≥ 50 | ≥ 50 | ≥ 50 | < 30 | inhibition at 10 µM [8]: ≥ 50%; inhibition at 30 µM [8]: ≥ 50% |
| CC1=C(CC(=O)O)c2cc(F)ccc2/C1=C\c1cccc(COc2ccc(F)cc2F)c1 [Compound A19, 2-[(1Z)-1-({3-[(2,4-Difluorophenoxy)methyl]phenyl}methylidene)-5-fluoro-2-methyl-1H-inden-3-yl]acetic acid] | ≥ 80 | ≥ 50 | ≥ 50 | ≥ 50 | < 30 | 30 to 50 | ≥ 50 | ≥ 50 | ≥ 50 | ≥ 50 | 30 to 50 | ≥ 50 | ≥ 50 | 30 to 50 | ≥ 50 | ≥ 50 | ≥ 50 | ≥ 50 | ≥ 50 | ≥ 50 | inhibition at 10 µM [8]: ≥ 50%; inhibition at 30 µM [8]: ≥ 50% |
